Data as given in patent US8703776B2 (Cymabay Therapeutics, Inc., priority 2011, dated 2014).

These molecules were tested against T1, human GPR131 (Homo sapiens, UniProt Q8TDU6) (assay: Stimulation of cAMP in stable cell line expressing human GPR131 (FRET cAMP kit)). Conditions: 0.5 h; 1.1 μM compound, relative to maximal stimulatory activity of lithocholic acid at 3.3 μM; 30 minutes at 37° C.; read-out: Percent Activity @ 1.1 μM (of 3.3 uM LCA) (%).
T1 construct: expressed in transfected cells
T1 sequence (Q8TDU6 1-330): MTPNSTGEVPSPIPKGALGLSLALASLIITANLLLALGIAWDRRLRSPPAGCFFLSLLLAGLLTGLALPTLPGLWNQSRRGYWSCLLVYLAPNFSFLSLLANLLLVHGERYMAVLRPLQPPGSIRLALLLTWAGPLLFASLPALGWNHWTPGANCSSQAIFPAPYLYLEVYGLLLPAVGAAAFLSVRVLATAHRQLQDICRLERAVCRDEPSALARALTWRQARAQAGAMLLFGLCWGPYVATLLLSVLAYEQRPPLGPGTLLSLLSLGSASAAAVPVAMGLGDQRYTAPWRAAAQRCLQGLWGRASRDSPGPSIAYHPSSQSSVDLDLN
Assay type: cell-based
Procedure: This assay was developed using a stable cell line expressing human GPR131.
To measure cAMP activity in response to GPR131 agonists, GPR131 cells suspended in DMEM/F12 medium with 1 mM IBMX were seeded in 384 well plates at 5000 cells per well. After incubating with test compounds at 37° C. for 30 minutes cAMP was measured using a fluorescene resonance energy transfer cAMP kit from Cis Bio (Bedford, Mass.) according to the manufacturer's instructions. Briefly, cells were lysed, and cAMP levels determined by competitive immunoassay using D2 labeled cAMP, and europium cryptate tagged anti cAMP antibody. Decreases in the FRET signal (fluorescence ratio (665 nm/620 […]) correspond to increases in intracellular cAMP levels.
Activities of test compounds in Table 1 below are expressed as % activity at 1.1 μM compound compared to the maximal stimulatory activity of lithocholic acid (LCA) (determined at 3.3 μM LCA)

Structure (SMILES)	activation at 1.1 µM [%]
Cc1nn(C)cc1CN(C)Cc1cnc(SCc2c(F)ccc(F)c2F)n1-c1ccc(F)cc1 [Compound 506, 1-(1,3-Dimethyl-1H-pyrazol-4-yl)-N-((1-(4-fluorophenyl)-2-((2,3,6-trifluorobenzyl)thio)-1H-imidazol-5-yl)methyl)-N-methylmethanamine]	100
COc1ccc(CN(C)C(=O)c2cnc(SCc3c(F)ccc(F)c3F)n2-c2ccc(F)cc2)cc1OC [Compound 507, N-(3,4-Dimethoxybenzyl)-1-(4-fluorophenyl)-N-methyl-2-((2,3,6-trifluorobenzyl)thio)-1H-imidazole-5-carboxamide]	93
Cc1nn(C)cc1CNC(=O)c1cnc(SCc2c(F)ccc(F)c2F)n1-c1ccc(F)cc1 [Compound 508, N-((1,3-Dimethyl-1H-pyrazol-4-yl)methyl)-1-(4-fluorophenyl)-2-((2,3,6-trifluorobenzyl)thio)-1H-imidazole-5-carboxamide]	82
CN(Cc1ccncc1)C(=O)c1cnc(SCc2c(F)ccc(F)c2F)n1-c1ccc(F)cc1 [Compound 518, 1-(4-Fluorophenyl)-N-methyl-N-(pyridin-4-ylmethyl)-2-((2,3,6-trifluorobenzyl)thio)-1H-imidazole-5-carboxamide]	100
CCN(Cc1cn(C)nc1C)C(=O)c1cnc(SCc2c(F)ccc(F)c2F)n1-c1ccc(F)cc1 [Compound 519, N-((1,3-Dimethyl-1H-pyrazol-4-yl)methyl)-N-ethyl-1-(4-fluorophenyl)-2-((2,3,6-trifluorobenzyl)thio)-1H-imidazole-5-carboxamide]	100
CN(Cc1cnn(C)c1)C(=O)c1cnc(SCc2c(F)ccc(F)c2F)n1-c1ccc(F)cc1 [Compound 520, 1-(4-Fluorophenyl)-N-methyl-N-((1-methyl-1H-pyrazol-4-yl)methyl)-2-((2,3,6-trifluorobenzyl)thio)-1H-imidazole-5-carboxamide]	98
Cc1nc(C)c(CN(C)C(=O)c2cnc(SCc3c(F)ccc(F)c3F)n2-c2ccc(F)cc2)s1 [Compound 522, N-((2,4-Dimethylthiazol-5-yl)methyl)-1-(4-fluorophenyl)-N-methyl-2-((2,3,6-trifluorobenzyl)thio)-1H-imidazole-5-carboxamide]	100
Cc1nn(C)cc1CN(C)C(=O)c1cnc(CCc2c(F)ccc(F)c2F)n1-c1ccc(F)cc1 [Compound 523, N-((1,3-Dimethyl-1H-pyrazol-4-yl)methyl)-1-(4-fluorophenyl)-N-methyl-2-(2,3,6-trifluorophenethyl)-1H-imidazole-5-carboxamide]	96
Cc1nn(C)cc1CN(C)C(=O)c1cnc(SCC(=O)c2ccccc2)n1-c1ccc(F)cc1 [Compound 525, N-((1,3-Dimethyl-1H-pyrazol-4-yl)methyl)-1-(4-fluorophenyl)-N-methyl-2-((2-oxo-2-phenylethyl)thio)-1H-imidazole-5-carboxamide]	96
Cc1nn(C)cc1C(C)N(C)C(=O)c1cnc(SCc2c(F)ccc(F)c2F)n1-c1ccc(F)cc1 (centres unmarked) [Compound 526, N-(1-(1,3-Dimethyl-1H-pyrazol-4-yl)ethyl)-1-(4-fluorophenyl)-N-methyl-2-((2,3,6-trifluorobenzyl)thio)-1H-imidazole-5-carboxamide]	96
CN(Cc1ccncc1)C(=O)c1cnc(CCc2c(F)ccc(F)c2F)n1-c1ccc(F)cc1 [Compound 528, 1-(4-Fluorophenyl)-N-methyl-N-(pyridin-4-ylmethyl)-2-(2,3,6-trifluorophenethyl)-1H-imidazole-5-carboxamide]	95
Fc1ccc(-n2c(COCc3ccncc3)cnc2SCc2c(F)ccc(F)c2F)cc1 [Compound 530, 4-(((1-(4-Fluorophenyl)-2-((2,3,6-trifluorobenzyl)thio)-1H-imidazol-5-yl)methoxy)methyl)pyridine]	100
Cc1nn(C)cc1CNCc1cnc(SCc2c(F)ccc(F)c2F)n1-c1ccc(F)cc1 [Compound 531, 1-(1,3-Dimethyl-1H-pyrazol-4-yl)-N-((1-(4-fluorophenyl)-2-((2,3,6-trifluorobenzyl)thio)-1H-imidazol-5-yl)methyl)methanamine]	84
Cc1nn(C)cc1CN(C)C(=O)c1cnc(SCc2c(F)cccc2Cl)n1-c1ccc(F)cc1 [Compound 532, 2-((2-Chloro-6-fluorobenzyl)thio)-N-((1,3-dimethyl-1H-pyrazol-4-yl)methyl)-1-(4-fluorophenyl)-N-methyl-1H-imidazole-5-carboxamide]	100
CN(Cc1ccncc1)C(=O)c1cnc(SCc2c(F)cccc2Cl)n1-c1ccc(F)cc1 [Compound 533, 2-((2-Chloro-6-fluorobenzyl)thio)-1-(4-fluorophenyl)-N-methyl-N-(pyridin-4-ylmethyl)-1H-imidazole-5-carboxamide]	100
CN(Cc1ccncc1)C(=O)c1cnc(CCc2ccccc2F)n1-c1ccc(F)cc1 [Compound 538, 2-(2-Fluorophenethyl)-1-(4-fluorophenyl)-N-methyl-N-(pyridin-4-ylmethyl)-1H-imidazole-5-carboxamide]	90
O=C(c1cnc(SCc2c(F)cccc2Cl)n1-c1ccc(F)cc1)N1CCCC1c1ccncc1 (centres unmarked) [Compound 539, (2-((2-Chloro-6-fluorobenzyl)thio)-1-(4-fluorophenyl)-1H-imidazol-5-yl)(2-(pyridin-4-yl)pyrrolidin-1-yl)methanone]	95
Cc1nn(C)cc1CN(C)C(=O)c1cnc(SCc2c(F)cc(C(=O)OC(C)(C)C)cc2F)n1-c1ccc(F)cc1 [Compound 542, tert-butyl 4-(((5-(((1,3-Dimethyl-1H-pyrazol-4-yl)methyl)(methyl)carbamoyl)-1-(4-fluorophenyl)-1H-imidazol-2-yl)thio)methyl)-3,5-difluorobenzoate]	100
Cc1nn(C)cc1CN(C)C(=O)c1cnc(SCc2ccccc2Cl)n1-c1ccc(F)cc1 [Compound 549, 2-((2-Chlorobenzyl)thio)-N-((1,3-dimethyl-1H-pyrazol-4-yl)methyl)-1-(4-fluorophenyl)-N-methyl-1H-imidazole-5-carboxamide]	98
Cc1cc(CN(C)C(=O)c2cnc(SCc3ccccc3Cl)n2-c2ccc(F)cc2)ccn1 [Compound 550, 2-((2-Chlorobenzyl)thio)-1-(4-fluorophenyl)-N-methyl-N-((2-methylpyridin-4-yl)methyl)-1H-imidazole-5-carboxamide]	98
Cc1nn(C)cc1CN(C)C(=O)c1cnc(SCc2ncccc2Cl)n1-c1ccc(F)cc1 [Compound 551]	99
Cc1nc(CSc2ncc(C(=O)N(C)Cc3cn(C)nc3C)n2-c2ccc(F)cc2)no1 [Compound 552, N-((1,3-Dimethyl-1H-pyrazol-4-yl)methyl)-1-(4-fluorophenyl)-N-methyl-2-(((5-methyl-1,2,4-oxadiazol-3-yl)methyl)thio)-1H-imidazole-5-carboxamide]	99
Cc1nn(C)cc1CN(C)C(=O)c1cnc(SCc2c(F)cccc2Cl)n1-c1ccc(Cl)cc1 [Compound 553, 2-((2-Chloro-6-fluorobenzyl)thio)-1-(4-chlorophenyl)-N-((1,3-dimethyl-1H-pyrazol-4-yl)methyl)-N-methyl-1H-imidazole-5-carboxamide]	100
Cc1nn(C)cc1CN(C)C(=O)c1cnc(SCc2c(F)cccc2Cl)n1-c1ccccc1 [Compound 554, 2-((2-Chloro-6-fluorobenzyl)thio)-N-((1,3-dimethyl-1H-pyrazol-4-yl)methyl)-N-methyl-1-phenyl-1H-imidazole-5-carboxamide]	99
CN(Cc1ccncc1)C(=O)c1cnc(SCc2c(F)cccc2Cl)n1-c1ccccc1 [Compound 555, 2-((2-Chloro-6-fluorobenzyl)thio)-N-methyl-1-phenyl-N-(pyridin-4-ylmethyl)-1H-imidazole-5-carboxamide]	100
CN(Cc1ccncc1)C(=O)c1cnc(SCc2c(F)cccc2Cl)n1-c1ccc(Cl)cc1 [Compound 556, 2-((2-Chloro-6-fluorobenzyl)thio)-1-(4-chlorophenyl)-N-methyl-N-(pyridin-4-ylmethyl)-1H-imidazole-5-carboxamide]	99
CN(Cc1ccncc1)C(=O)c1cnc(SCc2c(Cl)cccc2Cl)n1-c1ccc(F)cc1 [Compound 561, 2-((2,6-Dichlorobenzyl)thio)-1-(4-fluorophenyl)-N-methyl-N-(pyridin-4-ylmethyl)-1H-imidazole-5-carboxamide]	95
Cc1ccccc1CSc1ncc(C(=O)N(C)Cc2ccncc2)n1-c1ccc(F)cc1 [Compound 562, 1-(4-Fluorophenyl)-N-methyl-2-((2-methylbenzyl)thio)-N-(pyridin-4-ylmethyl)-1H-imidazole-5-carboxamide]	82
Cc1ccc(-n2c(C(=O)N(C)Cc3ccncc3)cnc2SCc2c(F)cccc2Cl)cc1 [Compound 563, 2-((2-Chloro-6-fluorobenzyl)thio)-N-methyl-N-(pyridin-4-ylmethyl)-1-(p-tolyl)-1H-imidazole-5-carboxamide]	98
